Reference: patent US20170181431A1, “HERBICIDAL COMPOSITIONS CONTAINING 4-AMINO-3-CHLORO-6-(4-CHLORO-2-FLUORO-3-METHOXYPHENYL) PYRIDINE-2-CARBOXYLIC ACID OR A DERIVATIVE THEREOF AND A CELL MEMBRANE DISRUPTOR HERBICIDE OR A DERIVATIVE THEREOF” (Dow AgroSciences LLC, priority 2015, published 2017)

Test system: Conyza species (fleabane, ERISS)
Assay: Field trial of post-emergence (foliar) herbicidal activity, percent weed control visually rated
Assay type: in vivo
Conditions: Cmpd 1 alone 5 g ae/ha, Table 2
Text: Treatments consisted of the methyl ester of 4-amino-3-chloro-6-(4-chloro-2-fluoro-3-methoxyphenyl)pyridine-2-carboxylic acid (Cmpd 1) tankmixed with saflufenacil or paraquat. The form of compound of formula (I) was applied on an acid equivalent basis, and saflufenacil and paraquat were applied on an active ingredient basis. Saflufenacil was applied as a commercial formulation containing 700 grams per kilogram (g/kg). Paraquat was applied as a commercial formulation containing 200 g/L.
Field trials were conducted under standard field conditions. Plot sizes varied from 2 meters (m) wide by 5 m long. Treatments were applied with small plot backpack sprayers, using pressurized carbon dioxide (CO2) as propellant. Pressure varied from 40-45 pounds per square inch (PSI), with spray tips typically of a Flat Fan type applying water diluent at 100 liters per hectare (L/ha). Boom size was 2 m in width. Weed sizes varied, but all treatments were applied as post-emergence treatments to weeds from 2 leaf to 2 tiller growth stages varying from 2-15 inches in height. No additional adjuvant was mixed with the treatments applied in the field.
Results in Tables 1 to 2 are field trial results for foliar applied compositions. The values reported are percent (%) control visually rated. The predicted percent (%) weed contol was determined using Colby's equation.
The following abbreviations are used in Tables 1 to 2: ERISS=Conyza species (fleabane, ERISS) g ae/ha=grams acid equivalent per hectare g ai/ha=grams active ingredient per hectare Mean % weed control=observed value of percent (%) control rated visually Predicted mean % weed control=expected value of percent (%) control as calculated by Colby's equation Cmpd 1=methyl 4-amino-3-chloro-6-(4-chloro-2-fluoro-3-methoxyphenyl)pyridine-2-carboxylate, halauxifen-methyl, or ARYLEX® DAA=days after application

SMILES: COC(=O)c1nc(-c2ccc(Cl)c(OC)c2F)cc(N)c1Cl [Cmpd 1, methyl 4-amino-3-chloro-6-(4-chloro-2-fluoro-3-methoxyphenyl)pyridine-2-carboxylate]
- Cmpd 1 Mean % weed control (17DAA): 33.75%
- Cmpd 1 Mean % weed control (28DAA): 33.75%
- Cmpd 1 Mean % weed control (43DAA): 40%
